# According to patent US20240325398A1, “COMBINATION THERAPIES” (Infinity Pharmaceuticals, Inc., priority 2014, published 2024):
# Assays:
# HH = experiment: Combination study, ATPLite 72 h, dose matrix (Synergy Score, CI50); assay type: cell-based; conditions: combination with Compound 1
# Method: The method is described as follows.
# Additive effect is CI=1.0. […] Antagonistic effect is CI>1.0.
# The Synergy Score is calculated as: […]
# HBL-1 = experiment: as above; conditions: combination with Compound 1, 72 h
# OCI-Ly3 = experiment: as above; conditions: combination with Compound 1; OCI-Ly3; 72 h
# U-2932 = experiment: as above; conditions: combination with Compound 1, 72 h
# TMD8 = experiment: as above; conditions: combination with Compound 1; TMD8; 72 h
# OCI-Ly7 = experiment: as above; conditions: combination with Compound 1, 72 h
# SU-DHL-4-epst = experiment: as above; conditions: combination with Compound 1, 72 h
# Method: (§1) Cells are thawed from a liquid nitrogen preserved state. Once cells have been expanded and divide at their expected doubling times, screening begins. Cells are seeded in growth media in either black 1536-well or 384-well tissue culture treated plates. Cells are then equilibrated in assay plates via centrifugation and placed in incubators attached to the Dosing Modules at 37° C. for 24 hours before treatment. […] These Tzero (To) plates are read using ultra-sensitive luminescence on Envision plate readers (Perkin Elmer). Treated assay plates are incubated with compound for 72 hours. After 72 hours, plates are developed for endpoint analysis using ATPLite. All data points are collected via automated processes, quality controlled and analyzed using Zalicus software.
# The measure of effect in the experiment can be the inhibition of cellular response relative to the untreated level (vehicle alone). […] The inhibition ranges from 0% at the untreated level to 100% when T=0. Inhibition levels are negative for agents that actually increase levels.
# (§2) Growth Inhibition (GI) is used as a measure of cell viability. […] A GI reading of 100% represents complete growth inhibition—T72 compound-treated and T0 vehicle signals are matched. […] A GI reading of 200% represents complete death of all cells in the culture well. Compounds reaching an activity plateau of GI 200% are considered cytotoxic. GI is calculated by applying the following test and equation:
# (§3) Combination analysis data were collected in a 6×6 dose matrix. Synergy is calculated by comparing a combination's response to those of its single compound, against the drug-with-itself dose-additive reference model. Deviations from dose additivity may be assessed visually on an isobologram or numerically with a Combination Index (CI). […] Additive effect is CI=1.0. […] Antagonistic effect is CI>1.0.
# (§4) To measure combination effects in excess of Loewe additivity, a scalar measure to characterize the strength of synergistic interaction termed the Synergy Score is devised. The Synergy Score is calculated as:
# (§5) The fractional inhibition for each component agent and combination point in the matrix is calculated relative to the median of all vehicle-treated control wells. The Synergy Score equation integrates the experimentally-observed activity volume at each point in the matrix in excess of a model surface numerically derived from the activity of the component agents using the Loewe model for additivity. Additional terms in the Synergy Score equation (above) are used to normalize for various dilution factors used for individual agents and to allow for comparison of synergy scores across an entire experiment. The inclusion of positive inhibition gating or an Idata multiplier removes noise near the zero effect level, and biases results for synergistic interactions at that occur at high activity levels.
# Loewe Volume (Loewe Vol) is used to assess the overall magnitude of the combination interaction in excess of the Loewe additivity model. Loewe Volume is particularly useful when distinguishing synergistic increases in a phenotypic activity (positive Loewe Volume) versus synergistic antagonisms (negative Loewe Volume). […] This model defines additivity as a non-synergistic combination interaction where the combination dose matrix surface should be indistinguishable from either drug crossed with itself. The calculation for Loewe additivity is:
# DOHH-2 = experiment: as above; conditions: combination with Compound 1, 72 h
# Farage = experiment: as above; conditions: combination with Compound 1; Farage; 72 h
# SU-DHL-10-epst = experiment: as above; conditions: combination with Compound 1, 72 h
# RL = experiment: as above; conditions: combination with Compound 1, 72 h
# KARPAS-422 = experiment: as above; conditions: combination with Compound 1, 72 h
# WSU-NHL = experiment: as above; conditions: combination with Compound 1, 72 h
# KARPAS-299 = experiment: as above; conditions: combination with Compound 1
# GRANTA-519 = experiment: as above; conditions: combination with Compound 1
# Jeko-1 = experiment: as above; conditions: combination with Compound 1
# Method: as §1
# (§6) where T is treated cell count and V is untreated (vehicle) cell count (at 72 hours). I ranges from 0% (when T=V) to 100% (when T=0). […] The measure of effect in the experiment can be the inhibition of cellular response relative to the untreated level (vehicle alone). […] The inhibition ranges from 0% at the untreated level to 100% when T=0. Inhibition levels are negative for agents that actually increase levels. Other effect measures, such as an activity ratio r=T/V may be more appropriate for some assays. When activity ratios (e.g, fold increase over stimulated control) are being used, the effect can be measured using an induction 1=ln(T/V). With this definition, all effect expressions are the same as for inhibition.
# as §2, §3, §4, §5
# (§7) Loewe Volume (Loewe Vol) is used to assess the overall magnitude of the combination interaction in excess of the Loewe additivity model. Loewe Volume is particularly useful when distinguishing synergistic increases in a phenotypic activity (positive Loewe Volume) versus synergistic antagonisms (negative Loewe Volume). […] This model defines additivity as a non-synergistic combination interaction where the combination dose matrix surface should be indistinguishable from either drug crossed with itself.
# Mino = experiment: as above; conditions: combination with Compound 1
# Method: as §1, §6, §2, §3, §4, §5, §7
# NCI-H929 = experiment: as above; conditions: combination with Compound 1
# [1] = as above; conditions: combination with Compound 1; OPM-2
# Method: as §1, §6, §2, §3, §4, §5, §7
# OMP-2 = experiment: as above; conditions: combination with Compound 1; OPM-2
# Method: as §1, §6, §2, §3, §4, §5, §7
# RPMI-8226 = experiment: as above; conditions: combination with Compound 1
smiles,measurement,setting,value
"CS(=O)(=O)N1CCN(Cc2cc3nc(-c4cccc5[nH]ncc45)nc(N4CCOCC4)c3s2)CC1 [GDC-0941, 2-(1H-indazol-4-yl)-6-((4-(methylsulfonyl)piperazin-1-yl)methyl)-4-morpholinothieno[3,2-d]pyrimidine]",CI50 growth inhibition,HH,W (W=≥1)
same,CI50 inhibition,HH,W (W=≥1)
same,Synergy Score growth inhibition,HH,A1 (A1=0.0001 to <1)
same,Synergy Score inhibition,HH,A1 (A1=0.0001 to <1)
same,CI50 growth inhibition,HBL-1,U (U=0.7 to <1)
same,CI50 inhibition,HBL-1,W (W=≥1)
same,Synergy Score growth inhibition,HBL-1,A2 (A2=1 to <3)
same,Synergy Score inhibition,HBL-1,A1 (A1=0.0001 to <1)
same,CI50 growth inhibition,OCI-Ly3,U (U=0.7 to <1)
same,CI50 inhibition,OCI-Ly3,W (W=≥1)
same,Synergy Score growth inhibition,OCI-Ly3,A1 (A1=0.0001 to <1)
same,Synergy Score inhibition,OCI-Ly3,A1 (A1=0.0001 to <1)
same,CI50 growth inhibition,U-2932,T (T=0.5 to <0.7)
same,CI50 inhibition,U-2932,W (W=≥1)
same,Synergy Score growth inhibition,U-2932,A1 (A1=0.0001 to <1)
same,Synergy Score inhibition,U-2932,A1 (A1=0.0001 to <1)
same,CI50 growth inhibition,TMD8,U (U=0.7 to <1)
same,CI50 inhibition,TMD8,W (W=≥1)
same,Synergy Score growth inhibition,TMD8,A3 (A3=>3)
same,Synergy Score inhibition,TMD8,A2 (A2=1 to <3)
same,CI50 growth inhibition,OCI-Ly7,U (U=0.7 to <1)
same,CI50 inhibition,OCI-Ly7,W (W=≥1)
same,Synergy Score growth inhibition,OCI-Ly7,A1 (A1=0.0001 to <1)
same,Synergy Score inhibition,OCI-Ly7,A1 (A1=0.0001 to <1)
same,CI50 growth inhibition,SU-DHL-4-epst,T (T=0.5 to <0.7)
same,CI50 inhibition,SU-DHL-4-epst,T (T=0.5 to <0.7)
same,Synergy Score growth inhibition,SU-DHL-4-epst,A3 (A3=>3)
same,Synergy Score inhibition,SU-DHL-4-epst,A2 (A2=1 to <3)
same,CI50 growth inhibition,DOHH-2,T (T=0.5 to <0.7)
same,CI50 inhibition,DOHH-2,T (T=0.5 to <0.7)
same,Synergy Score growth inhibition,DOHH-2,A3 (A3=>3)
same,Synergy Score inhibition,DOHH-2,A2 (A2=1 to <3)
same,CI50 growth inhibition,Farage,T (T=0.5 to <0.7)
same,CI50 inhibition,Farage,S (S=0.01 to <0.5)
same,Synergy Score growth inhibition,Farage,A3 (A3=>3)
same,Synergy Score inhibition,Farage,A2 (A2=1 to <3)
same,CI50 growth inhibition,SU-DHL-10-epst,S (S=0.01 to <0.5)
same,CI50 inhibition,SU-DHL-10-epst,T (T=0.5 to <0.7)
same,Synergy Score growth inhibition,SU-DHL-10-epst,A3 (A3=>3)
same,Synergy Score inhibition,SU-DHL-10-epst,A2 (A2=1 to <3)
same,CI50 growth inhibition,RL,U (U=0.7 to <1)
same,CI50 inhibition,RL,U (U=0.7 to <1)
same,Synergy Score growth inhibition,RL,A2 (A2=1 to <3)
same,Synergy Score inhibition,RL,A2 (A2=1 to <3)
same,CI50 growth inhibition,KARPAS-422,T (T=0.5 to <0.7)
same,CI50 inhibition,KARPAS-422,U (U=0.7 to <1)
same,Synergy Score growth inhibition,KARPAS-422,A1 (A1=0.0001 to <1)
same,Synergy Score inhibition,KARPAS-422,A1 (A1=0.0001 to <1)
same,CI50 growth inhibition,WSU-NHL,U (U=0.7 to <1)
same,CI50 inhibition,WSU-NHL,T (T=0.5 to <0.7)
same,Synergy Score growth inhibition,WSU-NHL,A3 (A3=>3)
same,Synergy Score inhibition,WSU-NHL,A2 (A2=1 to <3)
same,CI50 growth inhibition,KARPAS-299,W (W=≥1)
same,Synergy Score growth inhibition,KARPAS-299,A1 (A1=0.0001 to <1)
same,Synergy Score inhibition,KARPAS-299,A1 (A1=0.0001 to <1)
same,CI50 growth inhibition,GRANTA-519,S (S=0.01 to <0.5)
same,CI50 inhibition,GRANTA-519,U (U=0.7 to <1)
same,Synergy Score growth inhibition,GRANTA-519,A2 (A2=1 to <3)
same,Synergy Score inhibition,GRANTA-519,A1 (A1=0.0001 to <1)
same,CI50 growth inhibition,Jeko-1,S (S=0.01 to <0.5)
same,CI50 inhibition,Jeko-1,S (S=0.01 to <0.5)
same,Synergy Score growth inhibition,Jeko-1,A1 (A1=0.0001 to <1)
same,Synergy Score inhibition,Jeko-1,A1 (A1=0.0001 to <1)
same,CI50 growth inhibition,Mino,S (S=0.01 to <0.5)
same,CI50 inhibition,Mino,T (T=0.5 to <0.7)
same,Synergy Score growth inhibition,Mino,A2 (A2=1 to <3)
same,Synergy Score inhibition,Mino,A2 (A2=1 to <3)
same,CI50 growth inhibition,NCI-H929,T (T=0.5 to <0.7)
same,CI50 inhibition,NCI-H929,T (T=0.5 to <0.7)
same,Synergy Score growth inhibition,NCI-H929,A3 (A3=>3)
same,Synergy Score inhibition,NCI-H929,A2 (A2=1 to <3)
same,CI50 growth inhibition,[1],U (U=0.7 to <1)
same,CI50 inhibition,OMP-2,W (W=≥1)
same,Synergy Score growth inhibition,OMP-2,A3 (A3=>3)
same,Synergy Score inhibition,OMP-2,A1 (A1=0.0001 to <1)
same,CI50 growth inhibition,RPMI-8226,U (U=0.7 to <1)
same,CI50 inhibition,RPMI-8226,W (W=≥1)
same,Synergy Score growth inhibition,RPMI-8226,A2 (A2=1 to <3)
same,Synergy Score inhibition,RPMI-8226,A1 (A1=0.0001 to <1)
COc1ccc(-c2ccc3c(N4CCOC[C@@H]4C)nc(N4CCOC[C@@H]4C)nc3n2)cc1CO [AZD 8055],CI50 growth inhibition,HH,S (S=0.01 to <0.5)
same,CI50 inhibition,HH,S (S=0.01 to <0.5)
same,Synergy Score growth inhibition,HH,A3 (A3=>3)
same,Synergy Score inhibition,HH,A2 (A2=1 to <3)
same,CI50 growth inhibition,HBL-1,S (S=0.01 to <0.5)
same,CI50 inhibition,HBL-1,T (T=0.5 to <0.7)
same,Synergy Score growth inhibition,HBL-1,A3 (A3=>3)
same,Synergy Score inhibition,HBL-1,A1 (A1=0.0001 to <1)
same,CI50 growth inhibition,OCI-Ly3,S (S=0.01 to <0.5)
same,CI50 inhibition,OCI-Ly3,T (T=0.5 to <0.7)
same,Synergy Score growth inhibition,OCI-Ly3,A2 (A2=1 to <3)
same,Synergy Score inhibition,OCI-Ly3,A1 (A1=0.0001 to <1)
same,CI50 growth inhibition,U-2932,S (S=0.01 to <0.5)
same,CI50 inhibition,U-2932,U (U=0.7 to <1)
same,Synergy Score growth inhibition,U-2932,A2 (A2=1 to <3)
same,Synergy Score inhibition,U-2932,A2 (A2=1 to <3)
same,CI50 growth inhibition,TMD8,S (S=0.01 to <0.5)
same,CI50 inhibition,TMD8,S (S=0.01 to <0.5)
same,Synergy Score growth inhibition,TMD8,A3 (A3=>3)
same,Synergy Score inhibition,TMD8,A3 (A3=>3)
same,CI50 growth inhibition,OCI-Ly7,S (S=0.01 to <0.5)
same,CI50 inhibition,OCI-Ly7,T (T=0.5 to <0.7)
same,Synergy Score growth inhibition,OCI-Ly7,A3 (A3=>3)
same,Synergy Score inhibition,OCI-Ly7,A2 (A2=1 to <3)
same,CI50 growth inhibition,SU-DHL-4-epst,T (T=0.5 to <0.7)
same,CI50 inhibition,SU-DHL-4-epst,S (S=0.01 to <0.5)
same,Synergy Score growth inhibition,SU-DHL-4-epst,A3 (A3=>3)
same,Synergy Score inhibition,SU-DHL-4-epst,A3 (A3=>3)
same,CI50 growth inhibition,DOHH-2,S (S=0.01 to <0.5)
same,CI50 inhibition,DOHH-2,S (S=0.01 to <0.5)
same,Synergy Score growth inhibition,DOHH-2,A3 (A3=>3)
same,Synergy Score inhibition,DOHH-2,A3 (A3=>3)
same,CI50 growth inhibition,Farage,S (S=0.01 to <0.5)
same,CI50 inhibition,Farage,S (S=0.01 to <0.5)
same,Synergy Score growth inhibition,Farage,A3 (A3=>3)
same,Synergy Score inhibition,Farage,A3 (A3=>3)
same,CI50 growth inhibition,SU-DHL-10-epst,S (S=0.01 to <0.5)
same,CI50 inhibition,SU-DHL-10-epst,S (S=0.01 to <0.5)
same,Synergy Score growth inhibition,SU-DHL-10-epst,A3 (A3=>3)
same,Synergy Score inhibition,SU-DHL-10-epst,A3 (A3=>3)
same,CI50 growth inhibition,RL,U (U=0.7 to <1)
same,CI50 inhibition,RL,U (U=0.7 to <1)
same,Synergy Score growth inhibition,RL,A2 (A2=1 to <3)
same,Synergy Score inhibition,RL,A2 (A2=1 to <3)
same,CI50 growth inhibition,KARPAS-422,S (S=0.01 to <0.5)
same,CI50 inhibition,KARPAS-422,S (S=0.01 to <0.5)
same,Synergy Score growth inhibition,KARPAS-422,A2 (A2=1 to <3)
same,Synergy Score inhibition,KARPAS-422,A2 (A2=1 to <3)
same,CI50 growth inhibition,WSU-NHL,T (T=0.5 to <0.7)
same,CI50 inhibition,WSU-NHL,S (S=0.01 to <0.5)
same,Synergy Score growth inhibition,WSU-NHL,A3 (A3=>3)
same,Synergy Score inhibition,WSU-NHL,A3 (A3=>3)
same,CI50 growth inhibition,KARPAS-299,W (W=≥1)
same,CI50 inhibition,KARPAS-299,U (U=0.7 to <1)
same,Synergy Score growth inhibition,KARPAS-299,A1 (A1=0.0001 to <1)
same,Synergy Score inhibition,KARPAS-299,A1 (A1=0.0001 to <1)
same,CI50 growth inhibition,GRANTA-519,T (T=0.5 to <0.7)
same,CI50 inhibition,GRANTA-519,U (U=0.7 to <1)
same,Synergy Score growth inhibition,GRANTA-519,A2 (A2=1 to <3)
same,Synergy Score inhibition,GRANTA-519,A1 (A1=0.0001 to <1)
same,CI50 growth inhibition,Jeko-1,S (S=0.01 to <0.5)
same,CI50 inhibition,Jeko-1,T (T=0.5 to <0.7)
same,Synergy Score growth inhibition,Jeko-1,A3 (A3=>3)
same,Synergy Score inhibition,Jeko-1,A2 (A2=1 to <3)
same,CI50 growth inhibition,Mino,U (U=0.7 to <1)
same,CI50 inhibition,Mino,S (S=0.01 to <0.5)
same,Synergy Score growth inhibition,Mino,A2 (A2=1 to <3)
same,Synergy Score inhibition,Mino,A1 (A1=0.0001 to <1)
same,CI50 growth inhibition,NCI-H929,W (W=≥1)
same,CI50 inhibition,NCI-H929,T (T=0.5 to <0.7)
same,Synergy Score growth inhibition,NCI-H929,A3 (A3=>3)
same,Synergy Score inhibition,NCI-H929,A2 (A2=1 to <3)
same,CI50 growth inhibition,[1],U (U=0.7 to <1)
same,CI50 inhibition,OMP-2,W (W=≥1)
same,Synergy Score growth inhibition,OMP-2,A2 (A2=1 to <3)
same,Synergy Score inhibition,OMP-2,A1 (A1=0.0001 to <1)
same,CI50 growth inhibition,RPMI-8226,U (U=0.7 to <1)
same,CI50 inhibition,RPMI-8226,W (W=≥1)
same,Synergy Score growth inhibition,RPMI-8226,A2 (A2=1 to <3)
same,Synergy Score inhibition,RPMI-8226,A1 (A1=0.0001 to <1)
